Test results reported in PubChem BioAssay (NCI).
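Five compound concentrations were applied to cells in 96-well plates for 48 hours; endpoints were derived by simple linear interpolation of the resulting dose-response curve. The concentration for full growth arrest is given as TGI.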

Columns and labels:
Assay in all cases: NCI tumour cell line growth inhibition, 48 h
U251 CNS = system: U251 CNS
SNB-75 CNS = system: SNB-75 CNS
OVCAR-3 ovarian = system: OVCAR-3 ovarian
UACC-62 melanoma = system: UACC-62 melanoma
EKVX NSCLC = system: EKVX NSCLC
COLO 205 colon = system: COLO 205 colon
SNB-19 CNS = system: SNB-19 CNS
BT-549 breast = system: BT-549 breast
NCI-H226 lung = system: NCI-H226 lung
MDA-MB-231 breast = system: MDA-MB-231 breast
RPMI-8226 leukemia = system: RPMI-8226 leukemia
HCT-15 colon = system: HCT-15 colon
RXF 393 renal = system: RXF 393 renal
HT29 colon = system: HT29 colon
NCI-H23 lung = system: NCI-H23 lung
DU-145 prostate = system: DU-145 prostate
IGROV1 ovarian = system: IGROV1 ovarian
CAKI-1 renal = system: CAKI-1 renal
OVCAR-5 ovarian = system: OVCAR-5 ovarian
M19-MEL melanoma = system: M19-MEL melanoma

SMILES	TGI (U251 CNS) [µM]	TGI (SNB-75 CNS) [µM]	TGI (OVCAR-3 ovarian) [µM]	TGI (UACC-62 melanoma) [µM]	TGI (EKVX NSCLC) [µM]	TGI (COLO 205 colon) [µM]	TGI (SNB-19 CNS) [µM]	TGI (BT-549 breast) [µM]	TGI (NCI-H226 lung) [µM]	TGI (MDA-MB-231 breast) [µM]	TGI (RPMI-8226 leukemia) [µM]	TGI (HCT-15 colon) [µM]	TGI (RXF 393 renal) [µM]	TGI (HT29 colon) [µM]	TGI (NCI-H23 lung) [µM]	TGI (DU-145 prostate) [µM]	TGI (IGROV1 ovarian) [µM]	TGI (CAKI-1 renal) [µM]	TGI (OVCAR-5 ovarian) [µM]	TGI (M19-MEL melanoma) [µM]
O=S(=O)(O)c1ccc(O)c2ncc(Cl)cc12	> 100	> 100	> 100	> 100	> 100	> 100	> 100	> 100	> 100	> 100	> 100	> 100	> 100	> 100	> 100	> 100	> 100	> 100	> 100	–
CN(CC1(CO)CCC1)c1cc(Cl)nc(N)n1	> 100	> 100	> 100	> 100	> 100	> 100	> 100	> 100	> 100	> 100	> 100	> 100	> 100	> 100	> 100	> 100	> 100	> 100	> 100	–
[N-]=[N+]=Nc1c(C=O)c(=O)n2c3c(cccc13)CCC2	19.5	29.1	6.27	26.5	50.5	4.63	42.1	6.07	43.7	32.1	> 22.3	11.5	3.76	> 70.2	12.2	21	25	16.2	21	–
O=C1C(Br)=CC2(C=C1Br)CCNC1=C2C(=O)c2ccccc2C1=O	–	> 100	> 100	29.6	99.1	15.9	–	–	–	–	41	30.3	–	> 100	33.7	–	83.6	72.4	–	18.4
CCC1NC(=O)C1NC(=O)OC (configuration not stated)	> 100	> 100	> 100	> 100	> 100	> 100	> 100	> 100	> 100	> 100	> 100	> 100	> 100	> 100	> 100	> 100	> 100	> 100	> 100	–
CC(=O)OCC1OC(SC2=N/C(=C\c3cc4c(=O)c5ccccc5sc4s3)C(=O)N2c2ccccc2)C(OC(C)=O)C(OC(C)=O)C1OC(C)=O (configuration not stated)	62.8	> 100	> 100	> 100	> 100	> 100	> 100	> 100	> 100	> 100	> 100	> 100	> 100	> 100	> 100	> 100	> 100	> 100	> 100	–
O=C(C1OC1c1ccc(O)cc1)C12CC3CC(CC(C3)C1)C2 (configuration not stated)	> 100	> 100	> 64.8	> 100	> 78.2	> 76.9	> 100	> 81.8	> 100	> 100	> 73	> 100	> 100	> 100	> 100	> 100	> 100	> 66.1	> 100	–
COC(=O)c1ccccc1CC1Cc2ccc3c(c2C1=O)CCC3 (configuration not stated)	> 100	80.7	> 100	> 100	> 100	> 100	> 100	> 100	> 100	> 100	> 100	> 100	> 100	> 100	> 100	> 100	> 100	> 100	> 100	–
CC(=O)OCC1OC(OC2C(CSC3OC(COC(C)=O)C(OC(C)=O)C(OC(C)=O)C3OC(C)=O)OC(OC(C)=O)C(OC(C)=O)C2OC(C)=O)C(OC(C)=O)C(OC(C)=O)C1OC(C)=O (configuration not stated)	> 100	> 100	> 100	> 100	> 100	> 100	> 100	–	> 100	–	> 100	> 100	–	> 100	> 100	–	> 100	> 100	> 100	> 100
O=[N+]([O-])c1ccc(-c2csc3nc(-c4ccccc4)nn23)cc1	> 100	> 100	> 100	> 100	> 100	> 100	> 100	> 100	> 100	> 100	> 100	> 100	> 100	> 100	> 100	> 100	> 100	> 100	> 100	–
N=c1oc2c(Cl)cc(Cl)cc2cc1C(=O)Nc1cccc2ccccc12	7.01	10.9	> 40	> 100	> 74.3	> 32.7	> 78.2	> 100	66.2	11.3	53.3	> 100	76.8	> 100	> 52.6	> 100	40.6	> 67.7	> 100	–
NC(=O)c1cc2cc(Cl)cc(Cl)c2oc1=Nc1ccc(F)cc1	41.2	30.3	52.9	63.7	34.5	40.6	42.3	37	43.5	35.6	61.7	42.3	37	> 100	27.8	41.8	87.3	38	54.6	–
O=c1cc(NNc2ccccc2)[nH]c(=S)[nH]1	> 100	> 100	31.4	> 100	> 100	> 100	> 100	> 100	> 100	65.2	58.6	42.1	> 100	> 100	> 100	> 100	> 100	35.9	> 100	–
